This is an account of results in patent US10899738B2 (THE REGENTS OF THE UNIVERSITY OF MICHIGAN, priority 2016, dated 2021).

The assay concerns the target menin protein (Homo sapiens (Human), UniProt O00255). As to the kind of experiment: biochemical. Format: binding. The following applies: FP competitive binding, menin protein 4 nM, FAM-MM2 probe 2 nM; for IC50: read-out: Menin Binding Affinity IC50. Put shortly: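 Competitive fluorescence polarization assay using FAM-labelled MLL1 peptide probe FAM-MM2 (2 nM final) preincubated with menin (4 nM final) in PBS with 0.02% bovine γ-globulin, 4% DMSO and 0.01% Triton X-100. Compounds were added and incubated 30 min at room temperature. IC50 came from nonlinear regression of competition curves, with Ki also derived.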

Sequence of menin protein (O00255 whole entry): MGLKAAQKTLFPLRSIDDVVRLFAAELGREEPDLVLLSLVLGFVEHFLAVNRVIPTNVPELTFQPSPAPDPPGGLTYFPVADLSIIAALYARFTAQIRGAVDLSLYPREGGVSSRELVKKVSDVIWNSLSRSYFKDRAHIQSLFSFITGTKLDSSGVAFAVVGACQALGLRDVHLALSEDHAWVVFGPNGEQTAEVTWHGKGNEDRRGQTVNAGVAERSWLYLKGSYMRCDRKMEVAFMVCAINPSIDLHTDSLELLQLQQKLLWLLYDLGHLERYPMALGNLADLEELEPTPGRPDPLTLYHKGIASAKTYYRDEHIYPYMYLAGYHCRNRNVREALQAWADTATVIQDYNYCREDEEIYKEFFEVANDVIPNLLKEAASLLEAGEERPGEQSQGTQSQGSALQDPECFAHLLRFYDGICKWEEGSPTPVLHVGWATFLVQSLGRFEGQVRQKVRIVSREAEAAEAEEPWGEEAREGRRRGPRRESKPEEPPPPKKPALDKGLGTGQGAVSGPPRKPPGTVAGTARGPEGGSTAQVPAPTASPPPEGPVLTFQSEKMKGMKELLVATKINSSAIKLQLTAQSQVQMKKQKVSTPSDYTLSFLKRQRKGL

A word on the IC50: it is the midpoint of a concentration-inhibition curve. As to `N#Cc1cc2cc(CN3CCC(C4(C5CCCC5)NCCc5ccccc54)CC3)ccc2[nH]1` (centres unmarked) [compound 114, 5-((4-(1-cyclopentyl-1,2,3,4-tetrahydroisoquinolin-1-yl)piperidin-1-yl)methyl)-1H-indol-2-carbonitrile], the IC50 worked out at 32600 nM.
On the same count and under the same terms, next, `CC(=O)O[C@H]1CCC[C@@H]1C1(C2CCN(CC3CN(c4ccc(S(=O)(=O)c5ccnc(C)c5)cc4)C3)CC2)CN(C)Cc2ccccc21` (mixture of isomers) [compound 202, rac-(1R,2S)-2-(2-methyl-4-(1-((1-(4-((2-methylpyridin-4-yl)sulfonyl)phenyl)azetidin-3-yl)methyl)piperidin-4-yl)-1,2,3,4-tetrahydroisoquinolin-4-yl)cyclopentyl acetate]: 113 nM.
With `N#Cc1ccc(OCCCN2CCC(C(C#N)(Cc3ccncc3)c3ccccc3)CC2)cc1` (centres unmarked) [compound 344, 4-(3-(4-(1-cyano-1-phenyl-2-(pyridin-4-yl)ethyl)piperidin-1-yl)propoxy)benzonitrile], the IC50 came out at 180000 nM.
On to `c1ccc2c(c1)CCNC2(c1ccncc1)C1CCCC1` (centres unmarked) [compound 78, 1-cyclopentyl-1-(pyridin-4-yl)-1,2,3,4-tetrahydroisoquinoline], for which the “Menin Binding Affinity IC50 (μM)” value was “No inhibition”.
On to `CS(=O)(=O)c1ccc(OCCCN2CCC(C3(C4CCCCC4)NCCc4ccccc43)CC2)cc1` (centres unmarked) [compound 295, 1-cyclohexyl-1-(1-(3-(4-(methylsulfonyl)phenoxy)propyl)piperidin-4-yl)-1,2,3,4-tetrahydroisoquinoline], for which the IC50 was 1900 nM.
The same measure, in the same setting: next, `CN1Cc2ccccc2C(c2ccccn2)(C2CCN(CC3CN(c4ccc(S(C)(=O)=O)cc4)C3)CC2)C1` (centres unmarked) [compound 170, 2-methyl-4-(1-((1-(4-(methylsulfonyl)phenyl)azetidin-3-yl)methyl)piperidin-4-yl)-4-(pyridin-2-yl)-1,2,3,4-tetrahydroisoquinoline]: 47600 nM; `CCS(=O)(=O)c1ccc(N2CC(CN3CCC(C4(C5CCCC5)CN(C)Cc5ccccc54)CC3)C2)cc1` (centres unmarked) [compound 69, 4-cyclopentyl-4-(1-((1-(4-(ethylsulfonyl)phenyl)azetidin-3-yl)methyl)piperidin-4-yl)-2-methyl-1,2,3,4-tetrahydroisoquinoline]: 30 nM.
Turning to `N#Cc1ccc(OCCCN2CC(C3(C4CCCC4)c4ccccc4CCN3CCCOc3ccc(C#N)cc3)C2)cc1` (centres unmarked) [compound 61], the “Menin Binding Affinity IC50 (μM)” value is “No inhibition”.
For `N#Cc1ccc(OCCCCN2CC(C3(C4CCCC4)NCCc4ccccc43)C2)cc1` (centres unmarked) [compound 62, 4-(4-(3-(1-cyclopentyl-1,2,3,4-tetrahydroisoquinolin-1-yl)azetidin-1-yl)butoxy)benzonitrile], the IC50 was 36200 nM.
As to `N#Cc1cc2cc(C(=O)N[C@H]3CC[C@H](C4(C5CCCC5)NCCc5ccccc54)CC3)ccc2[nH]1` (some centres unmarked) [compound 80, 2-cyano-N-((1r,4r)-4-(1-cyclopentyl-1,2,3,4-tetrahydroisoquinolin-1-yl)cyclohexyl)-1H-indole-5-carboxamide], the IC50 is 11600 nM.
Still for that read-out and setting: next, `CC(=O)N[C@@H]1CCC[C@H]1C(C#N)(c1ccccc1)C1CCN(CC2CN(c3ccc(S(=O)(=O)c4ccncc4)cc3)C2)CC1` (mixture of isomers) [compound 264, rac-N-((1R,2S)-2-(cyano(phenyl)(1-((1-(4-(pyridin-4-ylsulfonyl)phenyl)azetidin-3-yl)methyl)piperidin-4-yl)methyl)cyclopentyl) acetamide]: 555 nM.
Still for that read-out and setting: next, `CO[C@H]1CCC[C@@H]1C1(C2CCN(CCCOc3ccc(C#N)cc3)CC2)CN(C)Cc2ccccc21` (mixture of isomers) [compound 325, rac-4-(3-(4-(4-((1R,2S)-2-methoxycyclopentyl)-2-methyl-1,2,3,4-tetrahydroisoquinolin-4-yl)piperidin-1-yl)propoxy)benzonitrile]: 1800 nM; `CN1Cc2cccc(F)c2C(C2CCCC2)(C2CCN(CCCOc3ccc(C#N)cc3)CC2)C1` (centres unmarked) [compound 31, 4-(3-(4-(4-cyclopentyl-5-fluoro-2-methyl-1,2,3,4-tetrahydroisoquinolin-4-yl)piperidin-1-yl)propoxy)benzonitrile]: 37 nM.
Consider `CC(=O)O[C@@H]1CCC[C@H]1C(C#N)(c1ccccc1)C1CCN(CC2CN(c3ccc(S(=O)(=O)c4ccnc(C)c4)cc3)C2)CC1` (mixture of isomers) [compound 200, rac-(1R,2S)-2-(cyano(1-((1-(4-((2-methylpyridin-4-yl)sulfonyl)phenyl)azetidin-3-yl)methyl)piperidin-4-yl)(phenyl)methyl)cyclopentyl acetate], for which the IC50 worked out at 17 nM.
The same measure, in the same setting: next, `N#Cc1ccc(OCCCN2CCC(C3(C4CCCCC4)NCCc4ccccc43)CC2)cc1` (centres unmarked) [compound 298, 4-(3-(4-(1-cyclohexyl-1,2,3,4-tetrahydroisoquinolin-1-yl)piperidin-1-yl)propoxy)benzonitrile]: 300 nM.
Still for that read-out and setting: next, `CS(=O)(=O)C[C@@H]1CCC[C@H]1C(C#N)(c1ccccc1)C1CCN(CC2CN(c3ccc(S(=O)(=O)c4ccncc4)cc3)C2)CC1` (mixture of isomers) [compound 256, rac-2-((1R,2R)-2-((methylsulfonyl)methyl)cyclopentyl)-2-phenyl-2-(1-((1-(4-(pyridin-4-ylsulfonyl)phenyl)azetidin-3-yl)methyl)piperidin-4-yl)acetonitrile]: 3300 nM.
Still for that read-out and setting: next, `CC(=O)N[C@@H]1CCC[C@H]1C1(C2CCN(CC3CN(c4ccc(S(=O)(=O)c5cnn(C)c5)cc4)C3)CC2)CNCc2ccccc21` (mixture of isomers) [compound 287, rac-N-((1R,2S)-2-(4-(1-((1-(4-((1-methyl-1H-pyrazol-4-yl)sulfonyl)phenyl)azetidin-3-yl)methyl)piperidin-4-yl)-1,2,3,4-tetrahydroisoquinolin-4-yl)cyclopentyl)acetamide]: 247 nM; `N#Cc1cc2cc(CCN3CCC(C4(C5CCCC5)NCCc5ccccc54)CC3)ccc2[nH]1` (centres unmarked) [compound 66, 5-(2-(4-(1-cyclopentyl-1,2,3,4-tetrahydroisoquinolin-1-yl)piperidin-1-yl)ethyl)-1H-indole-2-carbonitrile]: 1100 nM; `CNC(=O)O[C@@H]1CCC[C@H]1C(C#N)(c1ccccc1)C1CCN(CC2(F)CN(c3ccc(S(=O)(=O)c4cnn(C)c4)cc3)C2)CC1` (mixture of isomers) [compound 370, rac-(1R,2S)-2-(cyano(1-((3-fluoro-1-(4-((1-methyl-1H-pyrazol-4-yl)sulfonyl)phenyl)azetidin-3-yl)methyl)piperidin-4-yl)(phenyl)methyl)cyclopentyl methylcarbamate]: 3600 nM.
For the compound `CN1CCC(C2(C3CCCC3)NCCc3ccccc32)CC1` (centres unmarked) [compound 75, 1-cyclopentyl-1-(1-methylpiperidin-4-yl)-1,2,3,4-tetrahydroisoquinoline], the IC50 was determined as 142000 nM.
Same read-out and setting: next, `COC(=O)N1Cc2ccccc2C(C2CCN(CCCOc3ccc(C#N)cc3)CC2)([C@@H]2CCC[C@H]2OC)C1` (mixture of isomers) [compound 323, methyl rac-4-(1-(3-(4-cyanophenoxy)propyl)piperidin-4-yl)-4-((1S,2R)-2-methoxycyclopentyl)-3,4-dihydroisoquinoline-2(1H)-carboxylate]: 10400 nM.
Still for that read-out and setting: next, `CS(=O)(=O)c1ccc(N2CC(CN3CCC(C(C#N)(c4ccccc4)[C@H]4CCC[C@@H]4O)CC3)C2)cc1` (mixture of isomers) [compound 178, rac-2-((1R,2S)-2-hydroxycyclopentyl)-2-(1-((1-(4-(methylsulfonyl)phenyl)azitidin-3-yl)methyl)piperidin-4-yl)-2-phenylacetonitrile]: 6500 nM; `CCN1Cc2ccccc2C(C2CCCC2)(C2CCN(CC3CN(c4ccc(S(=O)(=O)c5ccnc(C)c5)cc4)C3)CC2)C1` (centres unmarked) [compound 154, 4-cyclopentyl-2-ethyl-4-(1-((1-(4-((2-methylpyridin-4-yl)sulfonyl)phenyl)azetidin-3-yl)methyl)piperidin-4-yl)-1,2,3,4-tetrahydroisoquinoline]: 6 nM; `O=S(=O)(c1ccc(CCN2CCc3cc(C4(C5CCCC5)NCCc5ccccc54)ccc3C2)cc1)C1CC1` (centres unmarked) [compound 99, 1-cyclopentyl-2′-(4-(cyclopropylsulfonyl)phenethyl)-1,1′,2,2′,3,3′,4,4′-octahydro-1,6′-biisoquinoline]: 802 nM.
On the same count and under the same terms, next, `CNC(=O)O[C@@H]1CCC[C@H]1C(C#N)(c1ccccc1)C1CCN(CC2CN(c3ccc(S(=O)(=O)c4ccncc4)cc3)C2)CC1` (mixture of isomers) [compound 216, rac-(1R,2S)-2-(cyano(phenyl)(1-((1-(4-(pyridin-4-ylsulfonyl)phenyl)azetidin-3-yl)methyl)piperidin-4-yl)methyl)cyclopentyl methylcarbamate]: 396 nM; `CO[C@H]1CCC[C@H]1C(C#N)(c1ccccc1)C1CCN(CCCOc2ccc(C#N)cc2)CC1` (mixture of isomers) [compound 176, rac-4-(3-(4-(cyano((1S,2S)-2-methoxycyclopentyl)(phenyl)methyl)piperidin-1-yl)propoxy)benzonitrile]: 140000 nM; `CCN1Cc2ccccc2C(C2CCCC2)(C2CCN(CC3(C)CN(c4ccc(S(=O)(=O)c5ccncc5)cc4)C3)CC2)C1` (centres unmarked) [compound 161, 4-cyclopentyl-2-ethyl-4-(1-((3-methyl-1-(4-(pyridin-4-ylsulfonyl)phenyl)azetidin-3-yl)methyl)piperidin-4-yl)-1,2,3,4-tetrahydroisoquinoline]: 21 nM.
As for `N#Cc1cc2ccc(C(=O)N[C@H]3CC[C@H](C4(C5CCCC5)NCCc5ccccc54)CC3)cc2[nH]1` (some centres unmarked) [compound 81, 2-cyano-N-((1r,4r)-4-(1-cyclopentyl-1,2,3,4-tetrahydroisoquinolin-1-yl)cyclohexyl)-1H-indole-6-carboxamide], the IC50 was found to be 1900 nM.
Still for that read-out and setting: next, `C[C@@H]1CC(C(C#N)(c2ccccc2)C2CCCC2)C[C@H](C)N1CCCOc1ccc(C#N)cc1` (stereo partly drawn) [compound 121, 4-(3-((2S,6R)-4-(cyano(cyclopentyl)(phenyl)methyl)-2,6-dimethylpiperidin-1-yl)propoxy)benzonitrile]: 13100 nM.
